Values after ≈ are worked out from the molar mass of the structure shown.
What was measured:
Strep. uberis SPU1 = test: MIC against veterinary bacteria in vitro; conditions: Streptococcus uberis, SPU1, 18 h
Experimental: (§1) The activity of the compounds of the Examples against various veterinarily important bacteria, was assayed in vitro using two-fold serial dilutions in Diagnostic Sensitivity Test Agar inoculated with 10^4 organisms.

Strep. faecalis I = test: MIC against human bacteria in vitro; type: cell-based; conditions: Enterococcus faecalis; Strep. faecalis I; 5% chocolated horse blood agar, 18 hours; read-out: MIC
M. suipneumoniae NB12 = test: MIC against mycoplasma in vitro; type: cell-based; conditions: Mesomycoplasma hyopneumoniae, NB12, 144 h
[1] = tested on: M. hyosynoviae ATCC 25591; test: MIC against mycoplasma in vitro; type: cell-based; conditions: 144 h; M. hyosynoviae ATCC 25591; 6 days, 37° C.; read-out: MIC
[2] = tested on: Strep. suis (group D) SPS11; test: MIC against veterinary bacteria in vitro; conditions: Streptococcus suis, 18 h
Experimental: as §1

[3] = tested on: Staph. aureus B4 (pen. resistant); test: MIC against veterinary bacteria in vitro; conditions: Staphylococcus aureus, 18 h
Experimental: as §1

M. dispar NCTC 10125 = test: MIC against mycoplasma in vitro; type: cell-based; conditions: 144 h; M. dispar NCTC 10125; 6 days, 37° C.; read-out: MIC
[4] = tested on: Pasteurella multocida 1633; test: MIC against human bacteria in vitro; type: cell-based; conditions: Pasteurella multocida 1633; 5% chocolated horse blood agar, 18 hours; read-out: MIC
Strep. agalactiae 2788-B = test: MIC against human bacteria in vitro; type: cell-based; conditions: Streptococcus agalactiae; Strep. agalactiae 2788-B; 5% chocolated horse blood agar, 18 hours; read-out: MIC
K. aerogenes A = test: MIC against human bacteria in vitro; type: cell-based; conditions: Klebsiella aerogenes; K. aerogenes A; 5% chocolated horse blood agar, 18 hours; read-out: MIC
Strep. agalactiae SPA1 = test: MIC against veterinary bacteria in vitro; conditions: Streptococcus agalactiae, SPA1, 18 h
Experimental: as §1

Staph. aureus Oxford = test: MIC against human bacteria in vitro; type: cell-based; conditions: Staphylococcus aureus; Staph. aureus Oxford; 5% chocolated horse blood agar, 18 hours; read-out: MIC
P. mirabilis 889 = test: MIC against human bacteria in vitro; type: cell-based; conditions: Proteus mirabilis; P. mirabilis 889; 5% chocolated horse blood agar, 18 hours; read-out: MIC
[5] = tested on: Corynebacterium xerosis 9755; test: MIC against human bacteria in vitro; type: cell-based; conditions: Corynebacterium xerosis 9755; 5% chocolated horse blood agar, 18 hours; read-out: MIC
M. suipneumoniae Str. 11 = test: MIC against mycoplasma in vitro; type: cell-based; conditions: Mesomycoplasma hyopneumoniae, STR.11, 144 h
M. suipneumoniae TAM 6N = test: MIC against mycoplasma in vitro; type: cell-based; conditions: Mesomycoplasma hyopneumoniae, TAM6N, 144 h
Bacillus subtilis 6633 = test: MIC against human bacteria in vitro; type: cell-based; conditions: Bacillus subtilis 6633; 5% chocolated horse blood agar, 18 hours; read-out: MIC
[6] = tested on: Corynebacterium pyogenes CY1; test: MIC against veterinary bacteria in vitro; conditions: CY1, 18 h
Experimental: as §1

Strep. spp. 64/848-C = test: MIC against human bacteria in vitro; type: cell-based; conditions: Strep. spp. 64/848-C; 5% chocolated horse blood agar, 18 hours; read-out: MIC
M. suipneumoniae MS 16 = test: MIC against mycoplasma in vitro; type: cell-based; conditions: Mesomycoplasma hyopneumoniae, MS16, 144 h; M. suipneumoniae MS 16; 6 days, 37° C.; read-out: MIC
Sarcina lutea 8340 = test: MIC against human bacteria in vitro; type: cell-based; conditions: Micrococcus luteus; Sarcina lutea 8340; 5% chocolated horse blood agar, 18 hours; read-out: MIC
M. hyorhinis ATCC 25021 = test: MIC against mycoplasma in vitro; type: cell-based; conditions: Mesomycoplasma hyorhinis, ATCC25021, 144 h
S. dublin S7 = test: MIC against veterinary bacteria in vitro; conditions: Salmonella enterica, S7, 18 h
Experimental: as §1

[7] = tested on: Strep. pyogenes R80/421-A; test: MIC against human bacteria in vitro; type: cell-based; conditions: Streptococcus pyogenes; Strep. pyogenes R80/421-A; 5% chocolated horse blood agar, 18 hours; read-out: MIC
M. suipneumoniae JF 435 = test: MIC against mycoplasma in vitro; type: cell-based; conditions: Mesomycoplasma hyopneumoniae, JF435, 144 h
[8] = tested on: M. suipneumoniae J2206/183^b; test: MIC against mycoplasma in vitro; type: cell-based; conditions: Mesomycoplasma hyopneumoniae, 144 h; M. suipneumoniae J2206/183^b; 6 days, 37° C.; read-out: MIC
[9] = tested on: Haemophilus influenzae Wy21; test: MIC against human bacteria in vitro; type: cell-based; conditions: Haemophilus influenzae Wy21; 5% chocolated horse blood agar, 18 hours; read-out: MIC
[10] = tested on: Ps. aeruginosa NCTC 10662; test: MIC against human bacteria in vitro; type: cell-based; conditions: Pseudomonas aeruginosa, NCTC10662; Ps. aeruginosa NCTC 10662; 5% chocolated horse blood agar, 18 hours; read-out: MIC
[11] = tested on: M. suipneumoniae ATCC 25095; test: MIC against mycoplasma in vitro; type: cell-based; conditions: Mesomycoplasma hyopneumoniae, ATCC25095, 144 h
[12] = tested on: M. bovigenitalium ATCC 14173; test: MIC against mycoplasma in vitro; type: cell-based; conditions: 144 h
E. coli ESS = test: MIC against human bacteria in vitro; type: cell-based; conditions: Escherichia coli; E. coli ESS; 5% chocolated horse blood agar, 18 hours; read-out: MIC
Staph. aureus W2827 = test: MIC against human bacteria in vitro; type: cell-based; conditions: Staphylococcus aureus; Staph. aureus W2827; 5% chocolated horse blood agar, 18 hours; read-out: MIC
Staph. aureus Russell = test: MIC against human bacteria in vitro; type: cell-based; conditions: Staphylococcus aureus; Staph. aureus Russell; 5% chocolated horse blood agar, 18 hours; read-out: MIC

SMILES: C/C(=C\c1ncc(CCCCCCCCO)o1)C[C@@H]1OC[C@H](C[C@@H]2O[C@H]2[C@@H](C)[C@H](C)O)[C@@H](O)[C@H]1O [Example 19, 5-(8-Hydroxyoctyl)-2-(1-normon-2-yl) oxazole A]
- MIC (Strep. uberis SPU1): 0.625 µg/mL (≈ 1.26 µM)
- MIC (Strep. faecalis I): > 128 µg/mL
- MIC (M. suipneumoniae NB12): 1 µg/mL (≈ 2.02 µM)
- MIC [1]: 0.5 µg/mL (≈ 1.01 µM)
- MIC [2]: 80 µg/mL (≈ 161 µM)
- MIC [3]: 1.25 µg/mL (≈ 2.52 µM)
- MIC (M. dispar NCTC 10125): 0.5 µg/mL (≈ 1.01 µM)
- MIC [4]: 32 µg/mL (≈ 64.6 µM)
- MIC (Strep. agalactiae 2788-B): 16 µg/mL (≈ 32.3 µM)
- MIC (K. aerogenes A): > 128 µg/mL
- MIC (Strep. agalactiae SPA1): 10 µg/mL (≈ 20.2 µM)
- MIC (Staph. aureus Oxford): 4 µg/mL (≈ 8.07 µM)
- MIC (P. mirabilis 889): > 128 µg/mL
- MIC [5]: 128 µg/mL (≈ 258 µM)
- MIC (M. suipneumoniae Str. 11): 1 µg/mL (≈ 2.02 µM)
- MIC (M. suipneumoniae TAM 6N): 2.5 µg/mL (≈ 5.04 µM)
- MIC (Bacillus subtilis 6633): 4 µg/mL (≈ 8.07 µM)
- MIC [6]: > 80 µg/mL
- MIC (Strep. spp. 64/848-C): 16 µg/mL (≈ 32.3 µM)
- MIC (M. suipneumoniae MS 16): 0.5 µg/mL (≈ 1.01 µM)
- MIC (Sarcina lutea 8340): 128 µg/mL (≈ 258 µM)
- MIC (M. hyorhinis ATCC 25021): 1 µg/mL (≈ 2.02 µM)
- MIC (S. dublin S7): > 80 µg/mL
- MIC [7]: 2 µg/mL (≈ 4.04 µM)
- MIC (M. suipneumoniae JF 435): 2.5 µg/mL (≈ 5.04 µM)
- MIC [8]: 5 µg/mL (≈ 10.1 µM)
- MIC [9]: 4 µg/mL (≈ 8.07 µM)
- MIC [10]: > 128 µg/mL
- MIC [11]: 1 µg/mL (≈ 2.02 µM)
- MIC [12]: 0.1 µg/mL (≈ 0.202 µM)
- MIC (E. coli ESS): 16 µg/mL (≈ 32.3 µM)
- MIC (Staph. aureus W2827): 4 µg/mL (≈ 8.07 µM)
- MIC (Staph. aureus Russell): 4 µg/mL (≈ 8.07 µM)

— US5041567A, “Antibacterial monic acid derivatives” (Beecham Group plc, priority 1982, dated 1991)
